# Test results from the supplement of paper PMC10733146.
# Tests used:
# Experiment in all cases: viability relative to DMSO control (fraction); higher = less drug effect (more viable cells)
# Details in all cases: 48 h
# [1] = test system: primary AML patient cells (S037)
# Summary of the method: (§1)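 Compounds were pre-plated at five concentrations, one well each, in 384-well plates, and primary mononuclear tumour cells were plated on them at 4 × 10^4 cells per well. The cells, fresh or cryopreserved, had been Ficoll-isolated from blood or bone marrow or taken from processed lymph node. After 48 h at 37 °C and 5% CO2 in RPMI-1640 with penicillin/streptomycin, L-glutamine and human serum, viability was read as CellTiter-Glo luminescence relative to the median of 16 inner DMSO wells.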
# [2] = test system: primary ALL patient cells (S088)
# Summary of the method: as §1
# [3] = test system: primary AML patient cells (S085)
# Summary of the method: as §1
# [4] = test system: primary CLL patient cells (S031)
# Summary of the method: as §1
# [5] = test system: primary B-PLL patient cells (S016)
# Summary of the method: as §1
# [6] = test system: primary DLBCL patient cells (S082)
# Summary of the method: as §1
# [7] = test system: primary AML patient cells (S060)
# Summary of the method: as §1
# [8] = test system: primary AML patient cells (S019)
# Summary of the method: as §1
# [9] = test system: primary DLBCL patient cells (S076)
# Summary of the method: as §1
# [10] = test system: primary T-NHL patient cells (S058)
# Summary of the method: as §1
# [11] = test system: primary AML patient cells (S011)
# Summary of the method: as §1
# [12] = test system: primary AML patient cells (S071)
# Summary of the method: as §1
# [13] = test system: primary FL patient cells (S087)
# Summary of the method: as §1
# [14] = test system: primary DLBCL patient cells (S049)
# Summary of the method: as §1
# [15] = test system: primary AML patient cells (S091)
# Summary of the method: as §1
# [16] = test system: primary MCL patient cells (S041)
# Summary of the method: as §1
# [17] = test system: primary AML patient cells (S089)
# Summary of the method: as §1
structure (smiles),measurement,setting,value
CC(=O)Nc1cccc(-n2c(=O)n(C3CC3)c(=O)c3c(Nc4ccc(I)cc4F)n(C)c(=O)c(C)c32)c1 [Trametinib],viability,[1]; 0.0008 µM,0.957
same,viability,[1]; 0.004 µM,0.969
same,viability,[1]; 0.02 µM,0.921
same,viability,[1]; 0.1 µM,0.899
same,viability,[1]; 0.5 µM,0.915
same,viability,[2]; 0.0008 µM,0.62
same,viability,[2]; 0.004 µM,0.548
same,viability,[2]; 0.02 µM,0.545
same,viability,[2]; 0.1 µM,0.503
same,viability,[2]; 0.5 µM,0.504
same,viability,[3]; 0.0008 µM,0.667
same,viability,[3]; 0.004 µM,0.618
same,viability,[3]; 0.02 µM,0.484
same,viability,[3]; 0.1 µM,0.456
same,viability,[3]; 0.5 µM,0.415
same,viability,[4]; 0.0008 µM,0.648
same,viability,[4]; 0.004 µM,0.49
same,viability,[4]; 0.02 µM,0.379
same,viability,[4]; 0.1 µM,0.349
same,viability,[4]; 0.5 µM,0.311
same,viability,[5]; 0.0008 µM,0.939
same,viability,[5]; 0.004 µM,1.05
same,viability,[5]; 0.02 µM,0.986
same,viability,[5]; 0.1 µM,0.933
same,viability,[5]; 0.5 µM,0.885
same,viability,[6]; 0.0008 µM,0.835
same,viability,[6]; 0.004 µM,0.828
same,viability,[6]; 0.02 µM,0.727
same,viability,[6]; 0.1 µM,0.702
same,viability,[6]; 0.5 µM,0.651
same,viability,[7]; 0.0008 µM,1.04
same,viability,[7]; 0.004 µM,0.797
same,viability,[7]; 0.02 µM,0.681
same,viability,[7]; 0.1 µM,0.657
same,viability,[7]; 0.5 µM,0.642
same,viability,[8]; 0.0008 µM,0.948
same,viability,[8]; 0.004 µM,0.944
same,viability,[8]; 0.02 µM,0.878
same,viability,[8]; 0.1 µM,0.919
same,viability,[8]; 0.5 µM,0.912
same,viability,[9]; 0.0008 µM,0.752
same,viability,[9]; 0.004 µM,0.789
same,viability,[9]; 0.02 µM,0.63
same,viability,[9]; 0.1 µM,0.706
same,viability,[9]; 0.5 µM,0.648
same,viability,[10]; 0.0008 µM,0.918
same,viability,[10]; 0.004 µM,0.98
same,viability,[10]; 0.02 µM,0.969
same,viability,[10]; 0.1 µM,0.967
same,viability,[10]; 0.5 µM,0.934
same,viability,[11]; 0.0008 µM,0.855
same,viability,[11]; 0.004 µM,0.925
same,viability,[11]; 0.02 µM,0.953
same,viability,[11]; 0.1 µM,0.931
same,viability,[11]; 0.5 µM,0.879
same,viability,[12]; 0.0008 µM,0.8
same,viability,[12]; 0.004 µM,0.789
same,viability,[12]; 0.02 µM,0.757
same,viability,[12]; 0.1 µM,0.744
same,viability,[12]; 0.5 µM,0.708
same,viability,[13]; 0.0008 µM,0.951
same,viability,[13]; 0.004 µM,0.9
same,viability,[13]; 0.02 µM,0.92
same,viability,[13]; 0.1 µM,0.903
same,viability,[13]; 0.5 µM,0.941
same,viability,[14]; 0.0008 µM,0.769
same,viability,[14]; 0.004 µM,0.834
same,viability,[14]; 0.02 µM,0.705
same,viability,[14]; 0.1 µM,0.729
same,viability,[14]; 0.5 µM,0.658
same,viability,[15]; 0.0008 µM,0.438
same,viability,[15]; 0.004 µM,0.308
same,viability,[15]; 0.02 µM,0.288
same,viability,[15]; 0.1 µM,0.299
same,viability,[15]; 0.5 µM,0.272
same,viability,[16]; 0.0008 µM,0.989
same,viability,[16]; 0.004 µM,1.04
same,viability,[16]; 0.02 µM,1.03
same,viability,[16]; 0.1 µM,1.01
same,viability,[16]; 0.5 µM,1.02
same,viability,[17]; 0.0008 µM,0.635
same,viability,[17]; 0.004 µM,0.57
same,viability,[17]; 0.02 µM,0.558
same,viability,[17]; 0.1 µM,0.529
same,viability,[17]; 0.5 µM,0.539
